# Results as given in patent US8461160B2, “Dihydropyrimidinones” (Hoffmann-La Roche, Inc., priority 2009, dated 2013).
# Target: T1, BACE2 (Homo sapiens, UniProt Q9Y5Z0)
# T1 construct: BACE2 enzyme ectodomain (derived from plasmid “pET17b-T7-hu proBACE2”) was prepared as described in Ostermann et al; T7 tag (N); made in house
# T1 sequence (Q9Y5Z0 21-473 limits assumed): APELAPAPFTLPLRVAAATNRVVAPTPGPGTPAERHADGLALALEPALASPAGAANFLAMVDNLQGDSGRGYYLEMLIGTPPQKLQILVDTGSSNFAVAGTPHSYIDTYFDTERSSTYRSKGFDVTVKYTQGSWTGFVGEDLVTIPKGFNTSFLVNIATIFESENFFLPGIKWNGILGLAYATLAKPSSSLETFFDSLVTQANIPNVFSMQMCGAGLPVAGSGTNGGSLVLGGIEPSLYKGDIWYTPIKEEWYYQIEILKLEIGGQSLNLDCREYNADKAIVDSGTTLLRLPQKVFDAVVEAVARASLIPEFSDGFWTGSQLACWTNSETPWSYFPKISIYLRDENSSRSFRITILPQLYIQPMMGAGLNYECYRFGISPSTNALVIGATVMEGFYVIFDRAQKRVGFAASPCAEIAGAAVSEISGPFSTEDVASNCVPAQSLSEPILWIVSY
# Assay: Fluorescent-peptide cleavage assay for BACE2 inhibition
# Format: biochemical
# Conditions: BACE2 enzyme ectodomain, fluorescent peptide WS EVNLD AEFRC-MR121, assay buffer pH 4.5, room temperature
# In short: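 Pro-enzyme BACE2 was activated at 80 nM for 1 h at room temperature in 100 mM Na-acetate, 20 mM EDTA, 0.05% BSA, pH 4.5, then preincubated 10 min with compound. IC50 from sigmoidal dose-response fit.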
row,SMILES,IC50 [nM]
1,"CN1C(=O)C[C@@](C)(c2cccc(NC(=O)c3coc(-c4ccccc4)n3)c2)N=C1N [Example 71, 2-Phenyl-oxazole-4-carboxylic acid [3-((S)-2-amino-1,4-dimethyl-6-oxo-1,4,5,6-tetrahydro-pyrimidin-4-yl)-phenyl]-amide]",1310
2,"Cc1cncc(C(=O)Nc2cccc([C@]3(C)CC(=O)N(C)C(N)=N3)c2)n1 [Example 24, 6-Methyl-pyrazine-2-carboxylic acid [3-((S)-2-amino-1,4-dimethyl-6-oxo-1,4,5,6-tetrahydro-pyrimidin-4-yl)-phenyl]amide]",217
3,"CN1C(=O)C[C@@](C)(c2cccc(NC(=O)c3ccon3)c2)N=C1N [Example 81, Isoxazole-3-carboxylic acid [3-((S)-2-amino-1,4-dimethyl-6-oxo-1,4,5,6-tetrahydro-pyrimidin-4-yl)-phenyl]-amide]",170
4,"Cc1cnc(C(=O)Nc2cccc([C@]3(C)CC(=O)N(C)C(N)=N3)c2)[nH]1 [Example 84, 4-Methyl-1H-imidazole-2-carboxylic acid [3-((S)-2-amino-1,4-dimethyl-6-oxo-1,4,5,6-tetrahydro-pyrimidin-4-yl)-phenyl]-amide]",390
5,"COc1cccnc1C(=O)Nc1cccc([C@@]2(C)N=C(N)N(C)C(=O)C2(C)C)c1 [Example 93, 3-Methoxy-pyridine-2-carboxylic acid [3-((R)-2-amino-1,4,5,5-tetramethyl-6-oxo-1,4,5,6-tetrahydro-pyrimidin-4-yl)-phenyl]amide]",158
6,"CN1C(=O)C[C@]2(CCc3ccc(NC(=O)c4ccc(OCC(F)(F)F)cn4)cc32)N=C1N [Example 129, N-[(1S)-2′-amino-1′-methyl-6′-oxo-2,3,5′,6′-tetrahydro-1′H-spiro[indene-1,4′-pyrimidin]-6-yl]-5-(2,2,2-trifluoro-ethoxy)-pyridine-2-carboxamide]",220
7,"CN1C(=O)C[C@@](C)(c2cccc(NC(=O)c3ccn(CC(F)(F)F)n3)c2)N=C1N [Example 73, 1-(2,2,2-Trifluoro-ethyl)-1H-pyrazole-3-carboxylic acid [3-((S)-2-amino-1,4-dimethyl-6-oxo-1,4,5,6-tetrahydro-pyrimidin-4-yl)-phenyl]-amide]",2070

# Stronger by IC50, values ahead:
row,IC50 [nM],SMILES
1,150,"CN1C(=O)C[C@@](C)(c2cccc(NC(=O)c3ncccc3C(F)(F)F)c2)N=C1N [Example 62, 3-Trifluoromethyl-pyridine-2-carboxylic acid [3-((S)-2-amino-1,4-dimethyl-6-oxo-1,4,5,6-tetrahydro-pyrimidin-4-yl)-phenyl]-amide]"
2,123,"Cc1cnc(C(=O)Nc2cccc([C@]3(C)CC(=O)N(C)C(N)=N3)c2)cn1 [Example 22, 5-Methyl-pyrazine-2-carboxylic acid [3-((S)-2-amino-1,4-dimethyl-6-oxo-1,4,5,6-tetrahydro-pyrimidin-4-yl)-phenyl]amide]"
3,28,"CN1C(=O)C[C@@](C)(c2cccc(NC(=O)c3ccc(C(F)(F)F)cn3)c2)N=C1N [Example 11, 5-Trifluoromethyl-pyridine-2-carboxylic acid [3-((S)-2-amino-1,4-dimethyl-6-oxo-1,4,5,6-tetrahydro-pyrimidin-4-yl)-phenyl]amide]"
4,13,"Cc1cc(Cl)cnc1C(=O)Nc1ccc(F)c([C@@]2(C)N=C(N)N(C)C(=O)C2(C)C)c1 [Example 99, 5-Chloro-3-methyl-pyridine-2-carboxylic acid [3-((S)-2-amino-1,4,5,5-tetramethyl-6-oxo-1,4,5,6-tetrahydro-pyrimidin-4-yl)-4-fluoro-phenyl]amide]"
5,9,"CN1C(=O)C[C@@](C)(c2cccc(NC(=O)c3ccccn3)c2)N=C1N [Example 13, Pyridine-2-carboxylic acid [3-((S)-2-amino-1,4-dimethyl-6-oxo-1,4,5,6-tetrahydro-pyrimidin-4-yl)-phenyl]-amide]"
6,6,"CN1C(=O)C[C@@](C)(c2cccc(NC(=O)c3ncc(Cl)cn3)c2)N=C1N [Example 20, 5-Chloro-pyrimidine-2-carboxylic acid [3-((S)-2-amino-1,4-dimethyl-6-oxo-1,4,5,6-tetrahydro-pyrimidin-4-yl)-phenyl]amide]"
